Assay results as given in US20080075688A1, “Use of non-digestible polymeric foams to sequester ingested materials thereby inhibiting their absorption by the body” (The Procter & Gamble Company, priority 2003, published 2008).

Legend:
rats [1] = experiment: Fat excretion in rats on a high-fat diet (30% of calories as corn oil) for 9 days with XENICAL, Example 4; assay type: in vivo, rat; settings: 400 ppm XENICAL without or with 0.5% HIPE foam in diet
Procedure: (§1) Three groups of rats were matched by weight and receive a high-fat diet (30% of calories as corn oil) for 9 days. One of the groups also received 400 ppm XENICAL® as part of the diet. The third group received both 400 ppm XENICAL® and 0.5% ground particulate HIPE foam from Example 1, Sample 1 as part of the diet. Total diet intake was measured throughout the study, and fecal output was measured in tail cups fitted to the animals during the last two days of the study. The pooled two-day collection of feces from each animal was analyzed for fat content according to AOAC method 954.04, published by AOAC International, Gaithersburg, Md.

rats [2] = experiment: Observer rating of oil on the fur of rats, Example 4; assay type: in vivo, rat
Procedure: as §1, with “Md. On days 5 and 7 of the study, the appearance of each animal was judged by two observers unaware of the dietary treatment of the animals. These observers assigned numerical values that increased with the amount of oil seen on the fur. A value of 1 was used to describe animals with no oil apparent on their fur. A value of 5 was used to describe animals with more than 90% of their fur coated with oil. Values of 2, 3, or 4, as appropriate, were assigned to animals with intermediate amounts of oil on the fur.” for “Md.”

CCCCCCCCCCC[C@@H](C[C@@H]1OC(=O)[C@H]1CCCCCC)OC(=O)[C@H](CC(C)C)NC=O [XENICAL ®, tetrahydrolipstatin]
Fat excretion versus the control group (rats [1]): significantly more fat than the control group
Mean Total 48 hour Lipid Excretion (rats [1]; corn oil diet 9 days, feces of last two days, control 0.16): 2.6 g
Excreted Fat (as % Ingested Fat) (rats [1]; corn oil diet 9 days, feces of last two days, control 3.9): 59.1 % Ingested Fat
Oil on fur rating compared with the other groups (rats [2]; 400 ppm XENICAL only versus control and XENICAL + foam): significantly different relative to the other two groups
Average Rating (oil on fur) (rats [2]; days 5 and 7, two blinded observers, scale 1 (no oil apparent on fur) to 5 (more than 90% of fur coated), control 1.03): 4.41
